Experimental data reported in patent US20080221096A1, “Pyrido[3' ,2':4,5]Furo[3,2-d]Pyrimidine Derivatives” (priority 2005, published 2008).

System: PDE4
Experiment: PDE4 Assay Procedure ([3H]-cAMP SPA)
Type: biochemical
Conditions: 15 nM [3H]-cAMP, 1 hour at room temperature, SPA beads

Row | SMILES | IC50 [nM]
1 | CCNc1nc2oc3c(NCCN4CCOCC4)ncnc3c2c2c1CCC(C)(C)C2 [Example 31, N^5-Ethyl-2,2-dimethyl-N^8-(2-morpholin-4-ylethyl)-1,2,3,4-tetrahydropyrimido[4′,5′:4,5]furo[2,3-c]isoquinoline-5,8-diamine] | 2
2 | CCNc1nc2oc3c(NCCCN4CCCC4=O)ncnc3c2c2c1CCC(C)(C)C2 [Example 35, 1-(3-{[5-(Ethylamino)-2,2-dimethyl-1,2,3,4-tetrahydropyrimido[4′,5′:4,5]furo[2,3-c]isoquinolin-8-yl]amino}propyl)pyrrolidin-2-one] | 1.6
3 | CC1(C)CCc2c(NC3CCC3)nc3oc4c(NCCN5CCOCC5)ncnc4c3c2C1 [Example 46, N^5-Cyclobutyl-2,2-dimethyl-N^8-(2-morpholin-4-ylethyl)-1,2,3,4-tetrahydropyrimido [4′,5′:4,5]furo[2,3-c]isoquinoline-5,8-diamine] | 0.7

Second part, the compound after the results:

Row | IC50 [nM] | SMILES
4 | 0.8 | CC1(C)CCc2c(N3CCOCC3)nc3oc4c(N(CCO)CCN5CCOCC5)ncnc4c3c2C1 [Example 20, 2-[(2,2-Dimethyl-5-morpholin-4-yl-1,2,3,4-tetrahydropyrimido[4′,5′:4,5]furo[2,3-c]isoquinolin-8-yl)(2-morpholin-4-ylethyl)amino]ethanol]
5 | 10 | CC1(C)Cc2c(c(N3CCOCC3)nc3oc4c(N(CCN5CCOCC5)Cc5cccnc5)ncnc4c23)CO1 [Example 14, 2,2-Dimethyl-5-morpholin-4-yl-N-(2-morpholin-4-ylethyl)-N-(pyridin-3-ylmethyl)-1,4-dihydro-2H-pyrano[4″,3″:4′,5′]pyrido[3′,2′:4,5]furo[3,2-d]pyrimidin-8-amine]
6 | 8.9 | CC1(C)CCc2c(N3CCOCC3)nc3oc4c(NCCN5CCOCC5)ncnc4c3c2C1 [Example 23, 2,2-Dimethyl-5-morpholin-4-yl-N-(2-morpholin-4-ylethyl)-1,2,3,4-tetrahydropyrimido[4′,5′:4,5]furo[2,3-c]isoquinolin-8-amine]
